According to patent publication US20110152227A1, “DEUTERIUM LABELLED DERIVATIVES OF 3-(2-HYDROXY-5-METHYPHENYL)-N,N-DIISOPROPYL-3-PHENYLPROPYLAMINE AND METHODS OF USE THEREOF” (CONCERT PHARMACEUTICALS INC., priority 2008, published 2011):
Where two headings read alike, the source gives them in different places.

Assay: Evaluation of metabolic stability in human liver microsomes
Assay type: in vitro ADME
Conditions: for half-life at 1 μM: human, human liver microsomes; for half-life in human liver microsomes as compared to tolterodine: result in words, versus tolterodine
Description: Materials: Human liver microsomes (20 mg/mL) were obtained from Xenotech, LLC (Lenexa, Kans.). β-nicotinamide adenine dinucleotide phosphate, reduced form (NADPH), magnesium chloride (MgCl2), and dimethyl sulfoxide (DMSO) were purchased from Sigma-Aldrich.
The 7.5 mM stock solutions were diluted to 50 μM in acetonitrile (ACN). The 20 mg/mL human liver microsomes were diluted to 0.625 mg/mL in 0.1 M potassium phosphate buffer, pH 7.4, containing 3 mM MgCl2. The diluted microsomes were added to wells of a 96-well deep-well polypropylene plate in duplicate. Ten μL of one of the […] test compound solutions was added to the microsomes and the mixture was pre-warmed for 10 minutes. Reactions were initiated by addition of pre-warmed NADPH solution. The final reaction volume was 0.5 mL and contained 0.5 mg/mL human liver microsomes, 1 μM test compound, and 2 mM NADPH in 0.1 M potassium phosphate buffer, pH 7.4, and 3 mM MgCl2. The reaction mixtures were incubated at 37° C., and 50 μL aliquots were removed at 0, 5, 10, 20, and 30 minutes and added to shallow-well 96-well plates which contained 50 μL of ice-cold ACN with internal standard to stop the reactions. The plates were stored at 4° C. for 20 minutes after which 100 μL of water was added to the wells of the plate before centrifugation to pellet precipitated proteins. Supernatants were transferred to another 96-well plate and analyzed for amounts of parent remaining by LC-MS/MS using an Applied Bio-systems API 4000 mass spectrometer. 7-ethoxy coumarin (1 μM) was used as a positive control. The experiment was repeated as second time to confirm the results.
Data analysis: The in vitro t1/2s for test compounds were calculated from the slopes of the linear regression of % parent remaining (ln) vs incubation time relationship using the following formula: in vitro t1/2=0.693/k, where k=−[slope of linear regression of % parent remaining (ln) vs incubation time]. Data analysis was performed using Microsoft Excel Software.

[1] = pH 7.4, average of Experiment 1 and 2, human liver microsomes, read-out: Ave t1/2
[2] = pH 7.4, human liver microsomes 0.5 mg/mL, 1 μM test compound, 2 mM NADPH, 37° C., 0-30 minutes, Experiment 1, read-out: t1/2 (minutes) Experiment 1
[3] = pH 7.4, human liver microsomes 0.5 mg/mL, 1 μM test compound, 2 mM NADPH, 37° C., 0-30 minutes, Experiment 2 (repeat), read-out: t1/2 (minutes) Experiment 2

Row | half-life at 1 μM [1] [min] | half-life at 1 μM [2] [min] | half-life at 1 μM [3] [min] | half-life in human liver microsomes as compared to tolterodine | SMILES
1 | 25.8 | 23.5 | 28 | substantially increased half-life | [2H]C([2H])([2H])c1ccc(O)c([C@H](CCN(C([2H])(C([2H])([2H])[2H])C([2H])([2H])[2H])C([2H])(C([2H])([2H])[2H])C([2H])([2H])[2H])c2ccccc2)c1 [Compound 100]
2 | 15.1 | 14.6 | 15.6 |  | [2H]C([2H])([2H])C([2H])(N(CC[C@H](c1ccccc1)c1cc(C)ccc1O)C([2H])(C([2H])([2H])[2H])C([2H])([2H])[2H])C([2H])([2H])[2H] [Compound 106, (R)-2-(3-(Di(isopropyl-d7)amino)-1-phenylpropyl)-4-methylphenol]
3 | 26.6 | 24.3 | 28.9 | substantially increased half-life | [2H]C([2H])([2H])c1ccc(O)c([C@H](CCN(C(C)C)C(C)C)c2ccccc2)c1 [Compound 112]
4 | 13.8 | 13.4 | 14.2 |  | Cc1ccc(O)c(C(CCN(C(C)C)C(C)C)c2ccccc2)c1 (centres unmarked) [Tolterodine, 3-(2-hydroxy-5-methylphenyl)-N,N-diisopropyl-3-phenylpropylamine, reference compound]
